{"source": "the supplement of paper PMC9663587", "test_in_all_cases": "GR value, 72 h; higher = faster growth (1 = untreated, <0 = killing);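 further: breast cancer and non-malignant breast epithelial lines, nine half-log doses, viable cells counted by Hoechst and LIVE/DEAD dye imaging versus time-zero plates and DMSO controls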", "key": {"THZ1": {"compound": "CN(C)C/C=C/C(=O)Nc1ccc(C(=O)Nc2cccc(Nc3ncc(Cl)c(-c4c[nH]c5ccccc45)n3)c2)cc1 [THZ1]"}, "YKL-5-124": {"compound": "C=CC(=O)Nc1ccc(C(=O)Nc2[nH]nc3c2CN(C(=O)N[C@H](CN(C)C)c2ccccc2)C3(C)C)cc1 [YKL-5-124]"}, "[1]": {"compound": "CCN1CCN(Cc2ccc(Nc3ncc(F)c(-c4cc(F)c5nc(C)n(C(C)C)c5c4)n3)nc2)CC1"}, "Neratinib/HKI272": {"compound": "CCOc1cc2ncc(C#N)c(Nc3ccc(OCc4ccccn4)c(Cl)c3)c2cc1NC(=O)/C=C/CN(C)C [Neratinib/HKI272]"}, "[2]": {"compound": "CC(=O)c1c(C)c2cnc(Nc3ccc(N4CCNCC4)cn3)nc2n(C2CCCC2)c1=O"}, "LEE011/Ribociclib": {"compound": "CN(C)C(=O)c1cc2cnc(Nc3ccc(N4CCNCC4)cn3)nc2n1C1CCCC1 [LEE011/Ribociclib]"}}, "data": [{"cell line": "HCC1569", "values": [{"measurement": "GR value", "setting": "THZ1; 0.0001 µM", "value": 1.16, "unit": "GR"}, {"measurement": "GR value", "setting": "THZ1; 0.0003162 µM", "value": 1.14, "unit": "GR"}, {"measurement": "GR value", "setting": "THZ1; 0.001 µM", "value": 1.15, "unit": "GR"}, {"measurement": "GR value", "setting": "THZ1; 0.003162 µM", "value": 1.42, "unit": "GR"}, {"measurement": "GR value", "setting": "THZ1; 0.01 µM", "value": 0.908, "unit": "GR"}, {"measurement": "GR value", "setting": "THZ1; 0.03162 µM", "value": 0.468, "unit": "GR"}, {"measurement": "GR value", "setting": "THZ1; 0.1 µM", "value": -0.112, "unit": "GR"}, {"measurement": "GR value", "setting": "THZ1; 0.3162 µM", "value": -0.346, "unit": "GR"}, {"measurement": "GR value", "setting": "THZ1; 1 µM", "value": -0.325, "unit": "GR"}, {"measurement": "GR value", "setting": "YKL-5-124; 0.001 µM", "value": 0.373, "unit": "GR"}, {"measurement": "GR value", "setting": "YKL-5-124; 0.003162 µM", "value": 0.541, "unit": "GR"}, {"measurement": "GR value", "setting": "YKL-5-124; 0.01 µM", "value": 0.302, "unit": "GR"}, {"measurement": "GR value", "setting": "YKL-5-124; 0.03162 µM", "value": 0.277, "unit": "GR"}, {"measurement": "GR value", "setting": "YKL-5-124; 0.1 µM", "value": 0.443, "unit": "GR"}, {"measurement": "GR value", "setting": "YKL-5-124; 0.3162 µM", "value": 0.124, "unit": "GR"}, {"measurement": "GR value", "setting": "YKL-5-124; 1 µM", "value": 0.175, "unit": "GR"}, {"measurement": "GR value", "setting": "YKL-5-124; 3.162 µM", "value": 0.0783, "unit": "GR"}, {"measurement": "GR value", "setting": "YKL-5-124; 10 µM", "value": -0.266, "unit": "GR"}, {"measurement": "GR value", "setting": "[1]; 0.001 µM", "value": 0.941, "unit": "GR"}, {"measurement": "GR value", "setting": "[1]; 0.003162 µM", "value": 0.932, "unit": "GR"}, {"measurement": "GR value", "setting": "[1]; 0.01 µM", "value": 0.955, "unit": "GR"}, {"measurement": "GR value", "setting": "[1]; 0.03162 µM", "value": 1.05, "unit": "GR"}, {"measurement": "GR value", "setting": "[1]; 0.1 µM", "value": 0.985, "unit": "GR"}, {"measurement": "GR value", "setting": "[1]; 0.3162 µM", "value": 1.07, "unit": "GR"}, {"measurement": "GR value", "setting": "[1]; 1 µM", "value": 0.822, "unit": "GR"}, {"measurement": "GR value", "setting": "[1]; 3.162 µM", "value": 0.639, "unit": "GR"}, {"measurement": "GR value", "setting": "[1]; 10 µM", "value": 0.0637, "unit": "GR"}, {"measurement": "GR value", "setting": "Neratinib/HKI272; 0.0003162 µM", "value": 0.95, "unit": "GR"}, {"measurement": "GR value", "setting": "Neratinib/HKI272; 0.001 µM", "value": 0.948, "unit": "GR"}, {"measurement": "GR value", "setting": "Neratinib/HKI272; 0.003162 µM", "value": 0.863, "unit": "GR"}, {"measurement": "GR value", "setting": "Neratinib/HKI272; 0.01 µM", "value": 0.708, "unit": "GR"}, {"measurement": "GR value", "setting": "Neratinib/HKI272; 0.03162 µM", "value": 0.612, "unit": "GR"}, {"measurement": "GR value", "setting": "Neratinib/HKI272; 0.1 µM", "value": 0.537, "unit": "GR"}, {"measurement": "GR value", "setting": "Neratinib/HKI272; 0.3162 µM", "value": 0.363, "unit": "GR"}, {"measurement": "GR value", "setting": "Neratinib/HKI272; 1 µM", "value": 0.225, "unit": "GR"}, {"measurement": "GR value", "setting": "Neratinib/HKI272; 3.162 µM", "value": 0.124, "unit": "GR"}, {"measurement": "GR value", "setting": "[2]; 0.0003162 µM", "value": 0.957, "unit": "GR"}, {"measurement": "GR value", "setting": "[2]; 0.001 µM", "value": 0.991, "unit": "GR"}, {"measurement": "GR value", "setting": "[2]; 0.003162 µM", "value": 1.03, "unit": "GR"}, {"measurement": "GR value", "setting": "[2]; 0.01 µM", "value": 1.05, "unit": "GR"}, {"measurement": "GR value", "setting": "[2]; 0.03162 µM", "value": 0.928, "unit": "GR"}, {"measurement": "GR value", "setting": "[2]; 0.1 µM", "value": 0.938, "unit": "GR"}, {"measurement": "GR value", "setting": "[2]; 0.3162 µM", "value": 1.06, "unit": "GR"}, {"measurement": "GR value", "setting": "[2]; 1 µM", "value": 0.932, "unit": "GR"}, {"measurement": "GR value", "setting": "[2]; 3.162 µM", "value": 1.05, "unit": "GR"}, {"measurement": "GR value", "setting": "LEE011/Ribociclib; 0.001 µM", "value": 1.04, "unit": "GR"}, {"measurement": "GR value", "setting": "LEE011/Ribociclib; 0.003162 µM", "value": 1.1, "unit": "GR"}]}]}
